Experimental data taken from patent US10501454B2, “Monocyclic β-lactam-siderophore conjugate, and preparation method and use thereof” (Shanghai Institute of Materia Medica, Chinese Academy of …, priority 2016, dated 2019).
Counter-ions that a name gives are not always drawn.

What was measured:
[1] = test system: Pseudomonas aeruginosa (4 strains); assay: MIC, broth microdilution, normal MH medium; type: cell-based; settings: Pseudomonas aeruginosa, multidrug-resistant clinical isolates (integrator I, IMP4), read-out: Antibacterial activity MIC, Pseudomonas aeruginosa (4 strains)
Experimental: (§1) Supplier of the strains: all of the above strains were provided by Sichuan Primed Shines Bio-tech Co., Ltd. A single colony was isolated by streaking on agar plates for each strain prior to the experiment, and the cells freshly cultured at 37° C. overnight were appropriately diluted for the experiment.
(§2) Medium: MH liquid medium (OXOID).
(§3) Culture condition: cells were incubated at 35-37° C. for 16-18 h.
(§4) The broth microdilution method recommended by Clinical and Laboratory Standards Institute (CLSI), Performance Standards for Antimicrobial Susceptibility Testing; Twenty-Third Informational Supplement, M02-All, M07-A9 and M11-A8, 2013 was used to determine the MIC value of each test sample against each test strain in the normal MH medium and iron-deficient MH medium.
(§5) After diluting each sample to different concentrations with normal MH medium, 100 μl of each test sample solution at different concentrations was separately aspirated onto a 96-well sterile polystyrene plate. Drug solutions were added to the 1st to 10th well with the final concentrations of 16, 8, 4, 2, 1, 0.5, 0.25, 0.125, 0.06, and 0.03 mg/L in each well, respectively. The 11th well, as a blank control, was not added with drugs and bacteria. The 12th well, as a bacterial growth control, was added with bacteria but no drug.
(§6) The test bacterial liquid was adjusted to a bacterial suspension of 0.5 Mcfarland standard with physiological saline, and diluted with MH broth at 1:100, and then added to the drug solution so that a final concentration of the bacterial liquid was approximately 10^4 CFU/ml; 100 μl of the bacterial liquid was further added to each of the above wells (the total volume in each well is 200 μl), which was sealed and placed in a 35-37° C. incubator for 18-20 h for testing the result. The OD600 value was measured by a microplate reader, Minimal Inhibitory Concentration (MIC) of a drug is the lowest concentration of the drug which prevents growth of bacteria in the wells. 1.2.2 MIC in iron-deficient MH medium

[2] = test system: Escherichia coli (4 strains); assay: MIC, broth microdilution, normal MH medium; type: cell-based
Experimental: as §1, §2, §3, §4, §5, §6

[3] = test system: Acinetobacter baumannii (4 strains); assay: MIC, broth microdilution, normal MH medium; type: cell-based; settings: Acinetobacter baumannii, read-out: Antibacterial activity MIC, Acinetobacter baumarmii (4 strains)
Experimental: as §1, §2, §3, §4, §5, §6

[4] = test system: Klebsiella pneumoniae (4 strains); assay: MIC, broth microdilution, normal MH medium; type: cell-based
Experimental: as §1, §2, §3, §4, §5
The OD600 value was measured by a microplate reader, Minimal Inhibitory Concentration (MIC) of a drug is the lowest concentration of the drug which prevents growth of bacteria in the wells. 1.2.2 MIC in iron-deficient MH medium

[5] = test system: multidrug-resistant Klebsiella pneumoniae KR15-4 (KPC2); assay: In vivo efficacy in mice systemically infected with multidrug-resistant Klebsiella pneumoniae KR15-4 (KPC2); settings: Klebsiella pneumoniae; Kunming mice, intraperitoneal infection, drug s.c. 0.5 h and 4 h after infection, deaths over 7 days, Bliss method; read-out: ED50 Subcutaneous injection
Experimental: 4.1 Test strains: clinically isolated pathogenic multidrug-resistant Klebsiella pneumoniae KR15-4 (KPC2), provided by Sichuan Primed Shines Bio-tech Co., Ltd.
4.2 Test animals: Kunming mice, age: 4 to 5 weeks, weight: 18 to 22 g, half male, half female, SPF grade.
4.3 Test methods: Mice were randomly divided into several groups, 5 mice for each group, half male and half female, and 4 doses for each test drug: 12.5, 25, 50 and 100 mg/kg. The mice were intraperitoneally injected with 0.5 mL of 3.0×10^6 CFU/mL bacterial suspension for each mouse, and subcutaneously injected with the drug at the designed dose 0.5 h and 4 h after infection. The subcutaneous injection volume was 0.2 ml/20 g mouse weight; the number of deaths in mice was observed and recorded for 7 consecutive days. According to the number of deaths in mice, the half effective dose ED50 was calculated according to the Bliss method using the DAS 1.0 software, edited by Sun Ruiyuan et al.

In the case of `CC(C)C(O/N=C(\C(=O)N[C@@H]1C(=O)N(OS(=O)(=O)O)C1(C)C)c1csc(N)n1)c1cc(=O)c(O)cn1O` (stereo partly drawn) [Compound 12, (3S)-3-((Z)-2-(2-aminothiazol-4-yl)-2-((1-(1,5-dihydroxy-4-oxo-1,4-dihydropyridin-2-yl)methylisopropyloxy)imine)acetamido)-2,2-dimethyl-4-oxoazetidine-1-hydrogen sulfate], the MIC [1] was 0.25 to 2 mg/L, the MIC ([2]; Escherichia coli, clinical isolates (ESBLs), read-out: Antibacterial activity MIC, Escherichia coli (4 strains)) was 0.03 to 0.25 mg/L and the “times more effective than BAL30072 in inhibitory activity against Escherichia coli” value ([2]; from MIC of Table 2) was 4-32 times. The MIC [3] was 2 mg/L, the MIC ([4]; Klebsiella pneumoniae, multi-drug resistant clinical isolates (KPC2), read-out: Antibacterial activity MIC, Klebsiella pneumoniae (4 strains)) was 0.5 to 1 mg/L and the “times more effective than BAL30072 in inhibitory activity against Klebsiella pneumoniae” value ([4]; from MIC of Table 2) was 64-128 times. For the same molecule, the ED50 [5] was 10.2 mg/kg.
